Ends that are not written are not given here. Fl = fluorescein
Tested on: human coronary artery endothelial cells (HCAE)
Assay: Binding of fluorescein-labeled ligands to HCAE cells, imaged by laser confocal fluorescence microscopy
Format: cell-based
Details: HCAE cells known to express LOX-1; about 10 μL of 1 mg/ml labeled ligand, incubated 1 hour, washed three times
Description: Images in the assay may be acquired using a laser confocal microscope or an Imager. For example, images of peptides bound to cells can be obtained using a laser confocal microscope as follows: HCAE cells can be grown on high quality borosilicate 8-chambered glass slides (Electron Microscopy Sciences, Fort Washington, Pa.). Then, about 10 μL of 1 mg/ml of an aqueous solution of a labeled peptide can be added to the cells and incubated for 1 hour. Subsequently, the cells preferably are washed with HBSS buffer three times. The cells then can be fixed with 4% formaldehyde solution over 10 minutes. After a final wash with buffer, the slide is imaged. Images preferably are acquired using an OLYMPUS laser scanning confocal microscope, model Fluoview 300, using Ar-ion laser (selecting 488 nm line) and a 510-nm long-pass filter. Images can be acquired using two channels: reflected light and fluorescent mode channel, or an overlay of both channels.
The experimental conditions for imaging the peptide-labeled HCAECs are described previously.
The image was obtained using a laser confocal microscope as follows: HCAE cells were laid on and grown in wells on a standard commercial 96-well plate (Becton-Dickenson, Franklin Lakes, N.J.). Then, about 10 μL of 1 mg/ml labeled antibody aqueous solution was added to the cells and incubated for 1 hour. […]

| Substance | binding / localization on HCAECs (fluorescent confocal image) |
| --- | --- |
| Fl-KGKG-QPLFTPQ (Fl-KGKGQPLFTPQ) [comparative peptide] | weaker binding affinity |
| Fl-KKGG-FQTPPQL (Fl-KKGGFQTPPQL) | localized on the cells |

Source: US20050089470A1, “Labeled peptides for lectin-like oxidized low-density lipoprotein receptor (LOX-1)” (priority 2003, published 2005)
